≈ marks a conversion by molar mass, not a printed value.
Tests used:
Pseudomonas aeruginosa [1] = assay: Antibacterial activity against Pseudomonas aeruginosa; type: functional, organism-based
Salmonella typhi = assay: Antibacterial activity against Salmonella typhi; type: functional, Salmonella enterica subsp. enterica serovar Typhi; settings: Salmonella enterica
Escherichia coli = assay: Antibacterial activity against Escherichia coli assessed as zone of inhibition at 100 ug/ml; type: functional; settings: for zone of inhibition at 100 µg/mL: read-out: IZ
Pseudomonas aeruginosa [2] = assay: Antibacterial activity against Pseudomonas aeruginosa assessed as zone of inhibition at 100 ug/ml; type: functional; settings: for zone of inhibition at 100 µg/mL: read-out: IZ
Staphylococcus aureus = assay: Antibacterial activity against Staphylococcus aureus assessed as zone of inhibition at 100 ug/ml; type: functional; settings: for zone of inhibition at 100 µg/mL: read-out: IZ
Bacillus cereus = assay: Antibacterial activity against Bacillus cereus assessed as zone of inhibition at 100 ug/ml; type: functional; settings: for zone of inhibition at 100 µg/mL: read-out: IZ

Molecule	MIC (Pseudomonas aeruginosa [1])	MIC (Salmonella typhi)	zone of inhibition at 100 µg/mL (Escherichia coli)	zone of inhibition at 100 µg/mL (Pseudomonas aeruginosa [2])	zone of inhibition at 100 µg/mL (Staphylococcus aureus)	zone of inhibition at 100 µg/mL (Bacillus cereus)	inhibition zone (IZ) (Escherichia coli)	inhibition zone (IZ) (Pseudomonas aeruginosa [2])	inhibition zone (IZ) (Staphylococcus aureus)	inhibition zone (IZ) (Bacillus cereus)
COc1ccc(NC(=O)CN2C(=O)/C(=N\c3cc(C)ccc3C)c3ccccc32)cc1	3 to 324 nM (≈ 1.24 to 134 ng/mL)	3 to 324 nM (≈ 1.24 to 134 ng/mL)								
O=C(COc1ccc(N2C(=O)CSC2c2ccccc2)c2cccnc12)N/N=C1\C(=O)N(CN2CCCCC2)c2ccccc21 (configuration not stated)			6 to 19 mm	6 to 19 mm	6 to 19 mm	6 to 19 mm				
O=C(COc1ccc(N2C(=O)C(Cl)C2c2ccc(Cl)cc2)c2cccnc12)N/N=C1\C(=O)N(CN2CCCCC2)c2ccccc21 (configuration not stated)			6 to 19 mm	6 to 19 mm	6 to 19 mm	6 to 19 mm				
O=C(COc1ccc(N2C(=O)CSC2c2ccc([N+](=O)[O-])cc2)c2cccnc12)N/N=C1\C(=O)N(CN2CCCCC2)c2ccccc21 (configuration not stated)			6 to 19 mm	6 to 19 mm	6 to 19 mm	6 to 19 mm				
Cc1nc2ccccc2cc1C(=O)N/N=C1\C(=O)Nc2cc(Cl)cc(Cl)c21			6 to 19 mm	6 to 19 mm	6 to 19 mm	6 to 19 mm				
Cc1ccc(C)c(NC(=O)CN2C(=O)/C(=N\c3ccccc3)c3ccccc32)c1	3 to 324 nM (≈ 1.15 to 124 ng/mL)	3 to 324 nM (≈ 1.15 to 124 ng/mL)								
Cc1nc2ccccc2cc1C(=O)N/N=C1\C(=O)Nc2ccccc21			6 to 19 mm	6 to 19 mm	6 to 19 mm	6 to 19 mm				
Cc1ccc(NC(=O)CN2C(=O)/C(=N\c3cc(C)ccc3C)c3ccccc32)c(C)c1	3 to 15 nM (≈ 1.23 to 6.17 ng/mL)	3 to 15 nM (≈ 1.23 to 6.17 ng/mL)								
O=C(COc1ccc(N2C(=O)C(Cl)C2c2ccc([N+](=O)[O-])cc2)c2cccnc12)N/N=C1\C(=O)N(CN2CCCCC2)c2ccccc21 (configuration not stated)			6 to 19 mm	6 to 19 mm	6 to 19 mm	6 to 19 mm				
Cc1nc2ccccc2cc1C(=O)N/N=C1\C(=O)Nc2c(Br)cccc21			6 to 19 mm	6 to 19 mm	6 to 19 mm	6 to 19 mm				
CN1CCN(CN2C(=O)/C(=N\NC(=O)COc3ccc(N4C(=O)C(Cl)C4c4ccccc4)c4cccnc34)c3ccccc32)CC1 (configuration not stated)			6 to 19 mm	6 to 19 mm	6 to 19 mm	6 to 19 mm				
Cc1nc2ccccc2cc1C(=O)N/N=C1\C(=O)Nc2c(Cl)cccc21			6 to 19 mm	6 to 19 mm	6 to 19 mm	6 to 19 mm				
O=C(COc1ccc(N2C(=O)C(Cl)C2c2ccccc2)c2cccnc12)N/N=C1\C(=O)N(CN2CCCCC2)c2ccccc21 (configuration not stated)			6 to 19 mm	6 to 19 mm	6 to 19 mm	6 to 19 mm				
Cc1nc2ccccc2cc1C(=O)N/N=C1\C(=O)Nc2ccc(F)c(Cl)c21			6 to 19 mm	6 to 19 mm	6 to 19 mm	6 to 19 mm				
O=C(COc1ccc(N2C(=O)CSC2c2ccccc2)c2cccnc12)N/N=C1\C(=O)N(CN2CCOCC2)c2ccccc21 (configuration not stated)			6 to 19 mm	6 to 19 mm	6 to 19 mm	6 to 19 mm				
Cc1nc2ccccc2cc1C(=O)N/N=C1\C(=O)Nc2c(Br)cc(Br)cc21			6 to 19 mm	6 to 19 mm	6 to 19 mm	6 to 19 mm				

Molecule	MIC (Pseudomonas aeruginosa [1])	MIC (Salmonella typhi)	zone of inhibition at 100 µg/mL (Escherichia coli)	zone of inhibition at 100 µg/mL (Pseudomonas aeruginosa [2])	zone of inhibition at 100 µg/mL (Staphylococcus aureus)	zone of inhibition at 100 µg/mL (Bacillus cereus)	inhibition zone (IZ) (Escherichia coli)	inhibition zone (IZ) (Pseudomonas aeruginosa [2])	inhibition zone (IZ) (Staphylococcus aureus)	inhibition zone (IZ) (Bacillus cereus)
O=C(COc1ccc(N2C(=O)CSC2c2ccc(Br)cc2)c2cccnc12)N/N=C1\C(=O)N(CN2CCCCC2)c2ccccc21 (configuration not stated)			6 to 19 mm	6 to 19 mm	6 to 19 mm	6 to 19 mm				
O=C(COc1ccc(N2C(=O)CSC2c2ccc(Cl)cc2)c2cccnc12)N/N=C1\C(=O)N(CN2CCCCC2)c2ccccc21 (configuration not stated)			6 to 19 mm	6 to 19 mm	6 to 19 mm	6 to 19 mm				
Cc1nc2ccccc2cc1C(=O)N/N=C1\C(=O)Nc2ccc([N+](=O)[O-])cc21			6 to 19 mm	6 to 19 mm	6 to 19 mm	6 to 19 mm				
Cc1nc2ccccc2cc1C(=O)N/N=C1\C(=O)Nc2c1ccc(Cl)c2Cl			6 to 19 mm	6 to 19 mm	6 to 19 mm	6 to 19 mm				
Cc1ccc(C2SCC(=O)N2c2ccc(OCC(=O)N/N=C3\C(=O)N(CN4CCCCC4)c4ccccc43)c3ncccc23)cc1 (configuration not stated)			6 to 19 mm	6 to 19 mm	6 to 19 mm	6 to 19 mm				
O=C(COc1ccc(N2C(=O)C(Cl)C2c2ccccc2)c2cccnc12)N/N=C1\C(=O)N(CN2CCOCC2)c2ccccc21 (configuration not stated)			6 to 19 mm	6 to 19 mm	6 to 19 mm	6 to 19 mm				
Cc1nc2ccccc2cc1C(=O)N/N=C1\C(=O)Nc2ccc(F)cc21			6 to 19 mm	6 to 19 mm	6 to 19 mm	6 to 19 mm				
COc1ccc(C2C(Cl)C(=O)N2c2ccc(OCC(=O)N/N=C3\C(=O)N(CN4CCCCC4)c4ccccc43)c3ncccc23)cc1 (configuration not stated)			6 to 19 mm	6 to 19 mm	6 to 19 mm	6 to 19 mm				
CN1CCN(CN2C(=O)/C(=N\NC(=O)COc3ccc(N4C(=O)CSC4c4ccccc4)c4cccnc34)c3ccccc32)CC1 (configuration not stated)			6 to 19 mm	6 to 19 mm	6 to 19 mm	6 to 19 mm				
Cc1nc2ccccc2cc1C(=O)N/N=C1\C(=O)Nc2c(Br)ccc(Br)c21			6 to 19 mm	6 to 19 mm	6 to 19 mm	6 to 19 mm				
Cc1nc2ccccc2cc1C(=O)N/N=C1\C(=O)Nc2ccc(Cl)c(Cl)c21			6 to 19 mm	6 to 19 mm	6 to 19 mm	6 to 19 mm				
O=C(COc1ccc(N2C(=O)C(Cl)C2c2ccc(Br)cc2)c2cccnc12)N/N=C1\C(=O)N(CN2CCCCC2)c2ccccc21 (configuration not stated)			6 to 19 mm	6 to 19 mm	6 to 19 mm	6 to 19 mm				
GENTAMICIN							19 to 27 mm	19 to 27 mm	19 to 27 mm	19 to 27 mm
Cc1nc2ccccc2cc1C(=O)N/N=C1\C(=O)Nc2cccc(Cl)c21			6 to 19 mm	6 to 19 mm	6 to 19 mm	6 to 19 mm				
COc1ccc(C2SCC(=O)N2c2ccc(OCC(=O)N/N=C3\C(=O)N(CN4CCCCC4)c4ccccc43)c3ncccc23)cc1 (configuration not stated)			6 to 19 mm	6 to 19 mm	6 to 19 mm	6 to 19 mm				
Cc1ccc(C2C(Cl)C(=O)N2c2ccc(OCC(=O)N/N=C3\C(=O)N(CN4CCCCC4)c4ccccc43)c3ncccc23)cc1 (configuration not stated)			6 to 19 mm	6 to 19 mm	6 to 19 mm	6 to 19 mm				

Source: ChEMBL document CHEMBL4613208, “Isatin derivatives and their anti-bacterial activities” (Eur J Med Chem, 2019)
